Earlier results, collected in patent publication US20120141587A1, “COMPOSITIONS AND METHODS FOR TREATMENT OR PREVENTION OF POST-OPERATIVE ORGAN OR TISSUE INFLAMMATION” (priority 2009, published 2012).

Tests used:
atrial fibrillation = details: instilled into a canine's pericardial sac; Ayers et al. 1996
inducible atrial flutter = details: oral; canine sterile pericarditis model; Goldstein et al. 2007

Structure (SMILES) | effect on atrial fibrillation (atrial fibrillation) | effect on inducible atrial flutter (inducible atrial flutter)
CCCCc1oc2ccccc2c1C(=O)c1cc(I)c(OCCN(CC)CC)c(I)c1 [amiodarone] | effectiveness in suppressing atrial fibrillation | –
C[C@]12C=CC(=O)C=C1CC[C@@H]1[C@@H]2C(=O)C[C@@]2(C)[C@H]1CC[C@]2(O)C(=O)CO [prednisone] | – | prevent inducible atrial flutter
